Source: ChEMBL document CHEMBL4477229, “Design and Characterization of Superpotent Bivalent Ligands Targeting Oxytocin Receptor Dimers via a Channel-Like Structure” (J Med Chem, 2016)
Substitutions are numbered along the chain they refer to. Activity calls are given as the source filed them. The calls are words filed in the database; no cut-off is given here. Numbered stars: 1 amine (or outer) side, 2 acyl side, 3 side chain; on linkers, the order of the positions; unused ones are H or OH. Bridge positions count the residues as written; N and C are the ends. Square brackets hold non-standard residues; d marks the D form. Peptide text beside a SMILES is read from it. I, II: the chains in the order shown. Suberoyl = O=C(CCCCCCC(=O)[*:2])[*:1]; Mpa = O=C(O)CCS

How the values were obtained:
Oxytocin receptor [1] = target: T1, Oxytocin receptor (Homo sapiens, UniProt P30559); test: Agonist activity at human oxytocin receptor low affinity site expressed in HEK293 cells coexpressing Rluc8-tagged Galphaq, N-terminal GFP-tagged Ggamma2 and Gbeta1 protein incubated for 2 mins in presence of TMH5-TAT peptide by Gq protein activation based BRET assay; type: cell-based
T1 sequence (P30559 whole entry): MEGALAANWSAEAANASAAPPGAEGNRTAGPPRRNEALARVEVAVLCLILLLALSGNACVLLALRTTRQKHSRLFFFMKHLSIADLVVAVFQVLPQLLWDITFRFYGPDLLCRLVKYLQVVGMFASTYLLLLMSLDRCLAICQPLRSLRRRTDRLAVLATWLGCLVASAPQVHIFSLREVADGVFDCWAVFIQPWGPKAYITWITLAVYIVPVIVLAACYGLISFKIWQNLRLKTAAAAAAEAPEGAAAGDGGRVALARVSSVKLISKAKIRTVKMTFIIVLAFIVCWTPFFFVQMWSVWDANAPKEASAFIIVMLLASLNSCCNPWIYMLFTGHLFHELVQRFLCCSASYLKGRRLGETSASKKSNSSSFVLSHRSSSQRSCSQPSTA

[2] = target: T2, Oxytocin receptor (Homo sapiens) (UniProt P30559); test: (§1) Agonist activity at human oxytocin receptor expressed in HEK293 cells coexpressing Rluc8-tagged Galphaq, N-terminal GFP-tagged Ggamma2 and Gbeta1 protein incubated for 2 mins in presence of TMH1-TAT peptide by Gq protein activation based BRET assay; type: cell-based; parameters: unit not given here
T2 sequence (whole entry): T1 sequence (P30559 whole entry)

Oxytocin receptor [3] = target: T1, Oxytocin receptor; test: as §1; type: cell-based
[4] = target: T2, Oxytocin receptor (Homo sapiens); test: Agonist activity at human oxytocin receptor expressed in HEK293 cells coexpressing Rluc8-tagged Galphaq, N-terminal GFP-tagged Ggamma2 and Gbeta1 protein incubated for 2 mins in presence of TMH5-TAT peptide by Gq protein activation based BRET assay; type: cell-based; parameters: unit not given here
[5] = target: T2, Oxytocin receptor (Homo sapiens); test: Ratio of EC50 for human oxytocin receptor high affinity site expressed in HEK293 cells coexpressing Rluc8-tagged Galphaq, N-terminal GFP-tagged Ggamma2 and Gbeta1 protein to Ki for human oxytocin receptor high affinity site expressed in COS7 cell membrane; type: cell-based
Danio rerio [6] = test: Effect on social behavior in zebra fish assessed as increase in time spent swimming parallel to nacre mutant fish over time spent shoaling close to wild type fish at 0.2 ng/kg, im; type: functional, organism-based
[7] = test system: T3, Oxytocin receptor (Homo sapiens), P30559 [V43A,C47A]; test: (§2) Agonist activity at human oxytocin receptor V43A/C47A double mutant expressed in HEK293 cells coexpressing Rluc8-tagged Galphaq, N-terminal GFP-tagged Ggamma2 and Gbeta1 protein incubated for 2 mins by Gq protein activation based BRET assay; type: cell-based; parameters: unit not given here
T3 sequence (whole entry): T1 sequence (P30559 whole entry) with V43A, C47A

Oxytocin receptor [8] = target: Oxytocin receptor (Homo sapiens, UniProt P30559, C47A/V43A); test: as §2; type: cell-based
[9] = test system: T4, Oxytocin receptor (Homo sapiens), P30559 [C47A]; test: (§3) Agonist activity at human oxytocin receptor C47A mutant expressed in HEK293 cells coexpressing Rluc8-tagged Galphaq, N-terminal GFP-tagged Ggamma2 and Gbeta1 protein incubated for 2 mins by Gq protein activation based BRET assay; type: cell-based; parameters: unit not given here
T4 sequence (whole entry): T1 sequence (P30559 whole entry) with C47A

Oxytocin receptor [10] = target: Oxytocin receptor (Homo sapiens, UniProt P30559, C47A); test: as §3; type: cell-based
Mus musculus [11] = organism: Mus musculus; test: Potency index, ratio of oxytocin dose to compound dose for OXTR+/- DBA/2J mouse assessed as increase in time spent exploring stranger mouse over time spent exploring empty cage; type: functional
Oxytocin receptor [12] = target: T1, Oxytocin receptor; test: Agonist activity at human oxytocin receptor high affinity site expressed in HEK293 cells coexpressing Rluc8-tagged Galphaq, N-terminal GFP-tagged Ggamma2 and Gbeta1 protein incubated for 2 mins by Gq protein activation based BRET assay; type: cell-based
Danio rerio [13] = organism: Danio rerio; test: Potency index, ratio of isotocin dose to compound dose for effect on shoaling behavior in zebra fish; type: functional
Mus musculus [14] = test: Effect on social behavior in OXTR+/- DBA/2J mouse assessed as increase in time spent exploring stranger mouse over time spent exploring empty cage at 0.005 ng/mouse, icv measured for 10 mins by three chamber method; type: functional, organism-based
[15] = target: T2, Oxytocin receptor (Homo sapiens); test: Displacement of [125I]-OVTA from human oxytocin receptor expressed in COS7 cell membrane; type: cell membranes
Oxytocin receptor [16] = target: T1, Oxytocin receptor; test: Agonist activity at human oxytocin receptor low affinity site expressed in HEK293 cells coexpressing Rluc8-tagged Galphaq, N-terminal GFP-tagged Ggamma2 and Gbeta1 protein incubated for 2 mins by Gq protein activation based BRET assay; type: cell-based
[17] = target: T2, Oxytocin receptor (Homo sapiens); test: Ratio of EC50 for human oxytocin receptor low affinity site expressed in HEK293 cells coexpressing Rluc8-tagged Galphaq, N-terminal GFP-tagged Ggamma2 and Gbeta1 protein to Ki for human oxytocin receptor low affinity site expressed in COS7 cell membrane; type: cell-based
[18] = target: T2, Oxytocin receptor (Homo sapiens); test: Agonist activity at human oxytocin receptor expressed in HEK293 cells coexpressing Rluc8-tagged Galphaq, N-terminal GFP-tagged Ggamma2 and Gbeta1 protein incubated for 2 mins by Gq protein activation based BRET assay; type: cell-based; parameters: unit not given here
Oxytocin receptor [19] = target: T1, Oxytocin receptor; test: Agonist activity at human oxytocin receptor high affinity site expressed in HEK293 cells coexpressing Rluc8-tagged Galphaq, N-terminal GFP-tagged Ggamma2 and Gbeta1 protein incubated for 2 mins in presence of TMH5-TAT peptide by Gq protein activation based BRET assay; type: cell-based

Chain of Oxytocin receptor (Homo sapiens, UniProt P30559, C47A) (P30559 whole entry C47A): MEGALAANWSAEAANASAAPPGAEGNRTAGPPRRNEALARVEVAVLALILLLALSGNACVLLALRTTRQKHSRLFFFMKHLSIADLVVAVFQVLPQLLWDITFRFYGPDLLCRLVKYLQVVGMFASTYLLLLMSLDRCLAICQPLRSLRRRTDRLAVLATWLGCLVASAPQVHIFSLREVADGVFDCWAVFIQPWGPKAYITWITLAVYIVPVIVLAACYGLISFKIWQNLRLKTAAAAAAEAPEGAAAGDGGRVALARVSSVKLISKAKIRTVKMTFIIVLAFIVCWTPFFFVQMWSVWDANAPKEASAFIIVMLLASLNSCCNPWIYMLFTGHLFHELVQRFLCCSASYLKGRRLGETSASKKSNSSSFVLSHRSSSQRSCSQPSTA
Chain of Oxytocin receptor (Homo sapiens, UniProt P30559, C47A/V43A) (P30559 whole entry V43A/C47A): as the sequence (P30559 whole entry C47A) above, with V43A counted along it

CC[C@H](C)[C@@H]1NC(=O)[C@H](Cc2ccc(O)cc2)NC(=O)CCSSC[C@@H](C(=O)N2CCC[C@H]2C(=O)N[C@@H](CCCCNC(=O)CCCCCCC(=O)NCCCC[C@H](NC(=O)[C@@H]2CCCN2C(=O)[C@@H]2CSSCCC(=O)N[C@@H](Cc3ccc(O)cc3)C(=O)N[C@@H]([C@@H](C)CC)C(=O)N[C@@H](CCC(N)=O)C(=O)N[C@@H](CC(N)=O)C(=O)N2)C(=O)NCC(N)=O)C(=O)NCC(N)=O)NC(=O)[C@H](CC(N)=O)NC(=O)[C@H](CCC(N)=O)NC1=O (I: [Mpa]YIQNCPKG-NH2 / II: [Mpa]YIQNCPKG-NH2; disulfide I:1-I:6, II:1-II:6; linker I:8-II:8 via Suberoyl)
EC50 (Oxytocin receptor [1]): 33.4 nM | Emax [2]: -0.16 | EC50 (Oxytocin receptor [3]): 19.3 nM | Emax [4]: -0.15 | Ratio [5]: 10 | Activity (Danio rerio [6]): Active | Emax [7]: -0.1 | EC50 (Oxytocin receptor [8]): 117 nM | Emax [9]: -0.14 | EC50 (Oxytocin receptor [10]): 40.5 nM | Ratio (Mus musculus [11]): 100 | EC50 (Oxytocin receptor [12]): 0.0008 nM | Ratio (Danio rerio [13]): 40 | Activity (Mus musculus [14]): Active | KiH [15]: 0.08 pM | KiL [15]: 1.24 nM | EC50 (Oxytocin receptor [16]): 67.3 nM | Ratio [17]: 10 | Emax [18]: -0.11 | EC50 (Oxytocin receptor [19]): 0.0118 nM
